Assay results taken from patent US12492208B2, “Crystal of pyrimidine compound” (TAIHO PHARMACEUTICAL CO., LTD., priority 2020, dated 2025).

Experiments:
[1] = test system: Luciferase gene-introduced HER2 expressing cell line (NCI-N87-Luc); experiment: Antitumor effect confirmation test (in vivo) on direct brain transplantation models; design: species or system nude mouse (BALB/cAJcl-nu/nu); conditions: 25 mg/kg/day oral, 21 days
Procedure: In order to confirm the antitumor effects of a test compound on direct brain transplantation models, NCI-N87-Luc, which was obtained by introducing a luciferase gene into NCI-N87 that was a human stomach cancer tumor cell line purchased from American Type Culture Collection, was used. The NCI-N87-Luc was added into a 10% fetal bovine serum (FBS)-containing RPMI-1640 medium (supplemented with 4.5 g/L glucose, 10 mM HEPES, and 1 mM sodium pyruvate) (Wako Pure Chemical Industries, Ltd.), and this cell line was then cultured in a 5% CO2 incubator at 37° C.
The NCI-N87-Luc cells were re-suspended in PBS in a concentration of 6.25×10^7 cells/mL. […]
As a reference of the amount of brain tumor, approximately 3 weeks after the transplantation, Total Flux (Photon/sec) was measured in all of the survival cases, using IVIS (PerkinElmer, Inc., model: Lumina II). […]
The value obtained by logarithmic transformation (Log 10) of the total flux on Day 22 in each group was analyzed by a significance test. […] A body weight change percentage (Body weight change; BWCn) from the body weight on the n^th day (BWn) was calculated according to the following equation: BWCn (%)=[(body weight on n^th day)−(body weight on grouping day)]/[(body weight on grouping day)]×100.

SK-BR-3 cells = experiment: Growth inhibitory activity against HER2 expressing cell line; assay type: cell-based; conditions: Homo sapiens, SK-BR-3, 72 h; 3 days, CellTiter-Glo 2.0
Procedure: SK-BR-3 cells as a HER2 overexpressing human breast cancer cell line were suspended in a McCoy's 5a medium (manufactured by Life Technologies) supplemented with 10% fetal bovine serum. The cell suspension was seeded in each well of a 384-well flat-bottom microplate, and was then cultured in a 5% carbon dioxide gas-containing culture vessel at 37° C. for 1 day. Thereafter, the compound (I) obtained according to the method in Synthesis Example 1 was dissolved in DMSO, and the compound was diluted to 500 times the final concentration in DMSO. The compound in the DMSO solution was diluted with DMSO solution or the medium used in the suspension of the cells, and the obtained solution was then added to each well of the culture plate so that the final concentration of DMSO was 0.2%. The obtained mixture was further cultured in the 5% carbon dioxide gas-containing culture vessel at 37° C. for 3 days. After completion of the culture for 3 days in the presence of the compound, the cells were counted using CellTiter-Glo 2.0 (manufactured by Promega), and the growth inhibition percentage was then calculated according to the following equation. The concentration of the compound, in which the growth of the cells can be inhibited by 50%, was defined as IC50 (nM). […]

NCI-N87 cells = experiment: Growth inhibitory activity against HER2 expressing cell line (NCI-N87); assay type: cell-based; conditions: Homo sapiens, NCI-N87, 72 h; 3 days, CellTiter-Glo 2.0
Procedure: NCI-N87 cells as a HER2 overexpressing human stomach cancer cell line (American Type Culture Collection, Cat No. ATCC (registered trademark) CRL-5822) were suspended in an RPMI1640 medium (Wako Pure Chemical Industries, Ltd.) supplemented with 10% fetal bovine serum. Subsequently, the cell suspension was seeded in each well of a 96-well flat-bottom microplate, and was then cultured in a 5% carbon dioxide gas-containing culture vessel at 37° C. for 1 day. Thereafter, the compound (I) obtained according to the method in Synthesis Example 1 was dissolved in DMSO, and the compound was diluted to 1000 times the final concentration in DMSO. The compound (I) in the DMSO solution was diluted with the medium used in the suspension of the cells, and the obtained solution was then added to each well of the culture plate, so that the final concentration of DMSO became 0.1%. Regarding a control well, DMSO was diluted with the medium used in the suspension of the cells, and the obtained solution was then added to each well of the culture plate, so that the final concentration of DMSO became 0.1%. […] After completion of the culture for 3 days in the presence of the compound, the cells were counted using CellTiter-Glo 2.0 (manufactured by Promega) in accordance with the protocols recommended by Promega. The growth inhibition percentage was calculated according to the following equation. […]

Q: What does the source list for `C=CC(=O)N1C[C@H](n2c(C#CC3CC3)c(C(=O)N[C@H](C)c3ccccc3)c3c(N)ncnc32)C[C@@H]1C` [compound (I), 7-((3R,5S)-1-acryloyl-5-methylpyrrolidin-3-yl)-4-amino-6-(cyclopropylethynyl)-N—((R)-1-phenylethyl)-7H-pyrrolo[2,3-d]pyrimidine-5-carboxamide]?
A: body weight reduction of −20% or more ([1]; all mice): not observed; Log 10 of the total flux on Day 22 versus control group ([1]; once a day, significance level (both sides) 5%): statistically significantly lower; IC50 (SK-BR-3 cells): 6.6 nM; IC50 (NCI-N87 cells): 9.9 nM
